Measured values: ChEMBL document CHEMBL5620368, “Molecular-level strategic goals and repressors in Leishmaniasis - Integrated data to accelerate target-based heterocyclic scaffolds” (Eur J Med Chem, 2023)
Values after ≈ are worked out from the molar mass of the structure shown. One block for each molecule: values may come before it.

What was measured:
Leishmania infantum [1] = assay: Inhibition of Leishmania infantum Arginase expressed in Escherichia coli BL21 (DE3) at 100 uM by enzymatic assay relative to control
Leishmania infantum [2] = assay: Inhibition of Leishmania infantum promastigotes Arginase expressed in Escherichia coli BL21 (DE3) at 100 uM by enzymatic assay relative to control
Leishmania infantum [3] = assay: Antileishmanial activity against Leishmania infantum MCAN/ES/ 89/IPZ229/1/89 axenic amastigotes assessed as reduction in parasite viability treated for 24 hrs by PI staining based flow cytometry; format: functional, organism-based; details: MCAN/ES/ 89/IPZ229/1/89, 24 h
[4] = Inhibition of Leishmania infantum Trypanothione reductase
Leishmania infantum [5] = assay: Antileishmanial activity against Leishmania infantum MCAN/ES/ 89/IPZ229/1/89 promastigote assessed as reduction in parasite viability incubated for 24 hrs by PI staining based flow cytometry; format: functional, organism-based; details: MCAN/ES/ 89/IPZ229/1/89, 24 h
[6] = Inhibition of Leishmania braziliensis DNA topoisomerase I
Leishmania amazonensis [7] = assay: Antiprotozoal activity against Leishmania amazonensis axenic amastigotes assessed as growth inhibition measured after 5 days by MTT assay; format: functional, organism-based; details: 120 h
Leishmania infantum [8] = assay: Antileishmanial activity against Leishmania infantum infected in BALB/c mouse assessed as reduction of parasite burden in spleen at 2.5 mg/kg for 15 days relative to control; format: functional; design: scale not given: the % may be the effect or the level left; details: time 15 day
Arginase = Arginase (Leishmania amazonensis, UniProt O96394); assay: Inhibition of Leishmania amazonensis Arginase
Leishmania donovani [9] = assay: Antileishmanial activity against Leishmania donovani Ag83 amastigotes infected in BALB/c mouse macrophage assessed as cell viability incubated for 48 hrs by PI staining based analysis; format: functional, organism-based; details: Ag83, 48 h
Leishmania major = assay: Antileishmanial activity against Leishmania major amastigotes assessed as reduction in parasite growth incubated for 72 hrs by MTS assay; format: functional, organism-based
Leishmania donovani [10] = assay: Antileishmanial activity against Leishmania donovani amastigotes assessed as parasite growth inhibition incubated for 72 hrs by MTS assay; format: functional, organism-based
Leishmania amazonensis [11] = assay: Antileishmanial activity against Leishmania amazonensis axenic amastigote assessed as inhibition of parasite growth incubated for 72 hrs by MTT colorimetric assay; format: functional, organism-based
Leishmania amazonensis [12] = assay: Antileishmanial activity against Leishmania amazonensis axenic promastigotes assessed as inhibition of parasite growth incubated for 72 hrs by MTT colorimetric assay; format: functional, organism-based
Leishmania donovani [13] = assay: Antileishmanial activity against Leishmania donovani MHOM/IN/83/AG83 promastigotes infected in BALB/c mouse assessed as reduction of parasite burden in spleen at 20 mg/kg per day relative to control; format: functional; design: scale not given: the % may be the effect or the level left
Leishmania amazonensis [14] = assay: Antileishmanial activity against Leishmania amazonensis promastigotes assessed as reduction in parasite growth after 72 hrs by CCK-8 assay; format: functional, organism-based
Trypanothione reductase = Trypanothione reductase (Leishmania donovani, UniProt P39050); assay: Inhibition of Leishmania donovani Trypanothione reductase
Leishmania amazonensis [15] = assay: Antileishmanial activity against Leishmania amazonensis promastigotes assessed as parasite growth inhibition incubated for 24 hrs; format: functional, organism-based
Leishmania donovani [16] = assay: Antileishmanial activity against Leishmania donovani promastigotes infected in hamster assessed as reduction in parasite load in spleen; format: functional, organism-based
Leishmania donovani [17] = assay: Antileishmanial activity against Leishmania donovani MHOM/IN/1983/AG83 promastigote assessed as reduction in parasite growth incubated for 12 hrs by MTT assay; format: functional, organism-based; details: MHOM/IN/1983/AG83, 12 h
Leishmania mexicana = assay: Antileishmanial activity against Leishmania mexicana promastigotes MHOM/B2/62/BEL21 assessed as reduction in parasite growth by tryphan blue staining based analysis; format: functional, organism-based
Leishmania infantum [18] = assay: Antileishmanial activity against Leishmania infantum amastigotes assessed as inhibition of parasite growth; format: functional, organism-based

Sequence of Trypanothione reductase (P39050 whole entry): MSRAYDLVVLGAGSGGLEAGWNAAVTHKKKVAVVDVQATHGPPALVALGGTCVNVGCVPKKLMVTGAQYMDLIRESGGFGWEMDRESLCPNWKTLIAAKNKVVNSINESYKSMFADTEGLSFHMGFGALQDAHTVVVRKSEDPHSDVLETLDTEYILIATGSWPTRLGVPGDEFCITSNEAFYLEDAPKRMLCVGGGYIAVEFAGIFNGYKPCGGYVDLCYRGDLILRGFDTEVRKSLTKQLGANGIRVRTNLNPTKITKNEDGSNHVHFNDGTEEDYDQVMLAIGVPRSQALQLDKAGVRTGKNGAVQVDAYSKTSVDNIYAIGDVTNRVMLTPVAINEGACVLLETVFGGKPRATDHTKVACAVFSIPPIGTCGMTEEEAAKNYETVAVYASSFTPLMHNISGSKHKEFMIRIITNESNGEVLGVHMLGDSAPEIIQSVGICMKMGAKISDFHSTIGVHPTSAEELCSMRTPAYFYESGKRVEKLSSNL

inhibition (Leishmania infantum [1]): 71.9%
inhibition (Leishmania infantum [2]): 55.2%
Molecule: O=C(/C=C/c1ccc([N+](=O)[O-])cc1)c1ccc(Br)cc1

IC50 [4]: 5.1 µM
Molecule: NCCNCc1nccn1-c1ccc(-c2nc(CCc3cccc4ccccc34)cs2)c(OCCN2CCNC2=O)c1
EC50 (Leishmania infantum [3]): 12.8 µM
EC50 (Leishmania infantum [5]): 12.8 µM

IC50 [6]: 5.2 µM
Molecule: CCCCCC(C1=C(O)C(=O)c2ccccc2C1=O)C1=C(O)C(=O)c2ccccc2C1=O

Molecule: COc1c(O)ccc2c1c[n+](C)c1c3cc4c(cc3ccc21)OCO4
IC50 (Leishmania amazonensis [7]): 0.54 µM

Molecule: O=C1c2ccccc2-c2c1c1ccc([N+](=O)[O-])cc1c(=O)n2CCCN1CCOCC1
Activity (Leishmania infantum [8]): 80%

Molecule: COc1cc2c3c(n(CCCN4CCOCC4)c(=O)c2cc1OC)-c1cc2c(cc1C3=O)OCO2 [INDOTECAN]
Activity (Leishmania infantum [8]): 80%

Molecule: O=c1c(O)c(-c2ccc(O)c(O)c2)oc2cc(O)cc(O)c12 [QUERCETIN]
IC50 (Arginase): 4.3 µM

IC50 (Arginase): 12.7 µM
Molecule: CC(=O)Cc1ccccc1C(F)(F)C(=O)NNc1ccccc1

Molecule: C/C=C1/CN(C)[C@H]2Cc3c([nH]c4ccccc34)[C@H](c3cc4[nH]c5c(c4cc3OC)CCN3C[C@@H]4C[C@H](CC)[C@H]3[C@@]5(C(=O)OC)C4)C[C@@H]1C2C(=O)OC (some centres not stated)
EC50 (Leishmania donovani [9]): 1.68 µM

IC50 [6]: > 100 µM
Molecule: COc1ccc(C(C2=C(O)C(=O)c3ccccc3C2=O)C2=C(O)C(=O)c3ccccc3C2=O)cc1

Molecule: C/C=C(\CC[C@@H](C)[C@H]1CC[C@H]2[C@@H]3CC=C4C[C@@H](O)CC[C@]4(C)[C@H]3CC[C@]12C)C(C)C [FUCOSTEROL]
IC50 (Leishmania major): 19 µg/mL (≈ 46 µM)
IC50 (Leishmania donovani [10]): 18.5 µg/mL (≈ 44.8 µM)

Molecule: COc1cccc2c1C(=O)c1c(O)c3c(c(O)c1C2=O)C[C@@](O)(C(=O)CO)C[C@@H]3O[C@H]1C[C@H](N)[C@H](O)[C@H](C)O1 [DOXORUBICIN]
IC50 (Leishmania amazonensis [11]): 12 µM
IC50 (Leishmania amazonensis [12]): 11.8 µM

IC50 [6]: 0.6 µM
Molecule: O=C1C(O)=C(C(C2=C(O)C(=O)c3ccccc3C2=O)c2ccc(F)cc2)C(=O)c2ccccc21

Molecule: sodium antimony gluconate
Activity (Leishmania donovani [13]): 97%

Molecule: O=c1cc(-c2ccc(O)c(O)c2)oc2c(C3OC(CO)[C@@H](O)[C@@H](O)[C@@H]3O)c(O)cc(O)c12 (some centres not stated)
IC50 (Leishmania amazonensis [14]): 15.9 µM

Molecule: COC[C@@H](Cc1ccc(OC)c(OC)c1)[C@@H](COC)Cc1cc(OC)c2c(c1)OCO2
EC50 (Leishmania donovani [9]): 1.26 µM

IC50 (Trypanothione reductase): 98.4 µM
Molecule: O[C@H](CC1c2ccccc2-c2ccccc21)CN1CCN(C[C@H](O)C[C@@H]2c3ccc(Br)cc3-c3cc(Br)cc(Br)c32)CC1

Molecule: COc1ccc2c(c[n+](C)c3c4cc5c(cc4ccc23)OCO5)c1OC [CHELERYTHRINE]
IC50 (Leishmania amazonensis [7]): 0.03 µM

Molecule: CCN(CC)CCOC(=O)c1ccc(NCCC(=O)c2ccc([N+](=O)[O-])cc2)cc1
IC50 (Leishmania amazonensis [15]): 12.4 µM

IC50 [4]: 8.6 µM
Molecule: NCCNCc1nccn1-c1ccc(-c2nc(CCc3ccccc3-c3ccccc3)cs2)c(OCCN2CCNC2=O)c1
EC50 (Leishmania infantum [3]): 5.3 µM
EC50 (Leishmania infantum [5]): 5.3 µM

inhibition (Leishmania infantum [1]): 72.3%
inhibition (Leishmania infantum [2]): 74.1%
Molecule: O=C(/C=C/c1ccc(F)cc1)c1ccccc1Cl

Molecule: O=c1cc(-c2ccc(O)c(O)c2)oc2cc(O)cc(O)c12 [LUTEOLIN]
IC50 (Arginase): 9 µM

Molecule: CC(C)CN(C[C@@H](O)[C@H](Cc1ccccc1)NC(=O)O[C@H]1CCOC1)S(=O)(=O)c1ccc(N)cc1 [AMPRENAVIR]
Activity (Leishmania donovani [13]): 98%

inhibition (Leishmania infantum [1]): 69.5%
inhibition (Leishmania infantum [2]): 70.4%
Molecule: COc1ccc(C(=O)/C=C/c2ccc([N+](=O)[O-])cc2)cc1

IC50 (Leishmania donovani [16]): 9.81 µM
Molecule: O=C1OC(c2ccc(Cl)cc2)c2cc(-c3ccc(Cl)cc3)cc(O)c21 (configuration not stated)
IC50 (Leishmania donovani [17]): 5.4 µM

Molecule: C[C@@H]1[C@H](O)[C@@H](C)/C=C/C=C/C=C/C=C/C=C/C=C/C=C/[C@H](O[C@@H]2O[C@H](C)[C@@H](O)[C@H](N)[C@@H]2O)C[C@@H]2O[C@](O)(C[C@@H](O)C[C@@H](O)[C@H](O)CC[C@@H](O)C[C@@H](O)CC(=O)O[C@H]1C)C[C@H](O)[C@H]2C(=O)O [AMPHOTERICIN B]
IC50 (Leishmania mexicana): 0.036 µg/mL (≈ 0.039 µM)

Molecule: Fc1ccc(C2Nc3cccnc3[C@H]3c4ccccc4C[C@@H]23)c(F)c1 (some centres not stated)
IC50 (Leishmania infantum [18]): 0.67 µM
